# According to ChEMBL document CHEMBL4382217 (Bioorg Med Chem, 2018):
# pIC50: −log10 of the molar value.
# Legend:
# [1] = Selectivity index, ratio of GI50 for human A431 cells harboring WT EGFR to GI50 for human NCI-H1975 cells harboring EGFR T790M/L858R double mutant
# [2] = tested on: NCI-H1975; assay: Antiproliferative activity against human NCI-H1975 cells harboring EGFR T790M/L858R double mutant after 72 hrs by MTS assay; assay type: functional, cell-based; conditions: Homo sapiens, NCI-H1975, 72 h
# [3] = (§1) Antiproliferative activity against human A431 cells harboring WT EGFR after 72 hrs by MTS assay; assay type: cell-based, A-431; conditions: human, A431 cells harboring WT EGFR
# [4] = biological target: T1, Epidermal growth factor receptor (Homo sapiens, UniProt P00533); assay: Inhibition of recombinant human N-terminal GST-tagged EGFR (696-end residues) expressed in baculovirus expression system using Srctide as substrate by fluorescence assay
# [5] = tested on: Calu-6; assay: Antiproliferative activity against human Calu6 cells harboring WT EGFR after 72 hrs by MTS assay; assay type: cell-based; conditions: Calu-6, 72 h
# [6] = tested on: PC-9; assay: Antiproliferative activity against human PC9 cells harboring EGFR mutant after 72 hrs by MTS assay; assay type: functional, cell-based; conditions: PC-9, 72 h
# [7] = species: Homo sapiens; assay: Selectivity index, ratio of IC50 for recombinant human N-terminal GST-tagged EGFR (696-end residues) expressed in baculovirus expression system to IC50 for recombinant human N-terminal GST-tagged EGFR T790M/L858R double mutant (696-end residues)
# [8] = tested on: Calu-3; assay: Antiproliferative activity against human Calu3 cells harboring WT EGFR after 72 hrs by MTS assay; assay type: cell-based; conditions: Calu-3, 72 h
# [9] = biological target: Epidermal growth factor receptor (Homo sapiens, UniProt P00533, L858R/T790M); assay: Inhibition of recombinant human N-terminal GST-tagged EGFR T790M/L858R double mutant (696-end residues) by fluorescence assay
# [10] = tested on: HCC827; assay: Antiproliferative activity against human HCC827 cells harboring EGFR mutant after 72 hrs by MTS assay; assay type: functional, cell-based; conditions: HCC827, 72 h
# [11] = tested on: A-431; assay: as §1; assay type: cell-based; conditions: Homo sapiens, A-431, 72 h
# [12] = Drug level in human liver microsomes treated with N-(2-((2-(Dimethylamino)ethyl)(methyl)amino)-4-methoxy-5-((4-(1-methyl-1H-pyrrolo[3,2-b]pyridin-3-yl)pyrimidin-2-yl)amino)phenyl)acrylamide by LC-MS/MS analysis; assay type: ADME, Microsome
# [13] = biological target: Epidermal growth factor receptor (Homo sapiens, UniProt P00533, L858R); assay: Inhibition of recombinant human GST-tagged EGFR L858R mutant expressed in baculovirus expression system by fluorescence assay
# [14] = tested on: NCI-H1975; assay: Antitumor activity against human NCI-H1975 cells harboring EGFR T790M/L858R double mutant xenografted in castrated nude mouse assessed as tumor growth inhibition at 10 mg/kg, po daily for 14 consecutive days measured on day 15 relative to control; assay type: functional; conditions: 360 h, read-out: TGI
# [15] = biological target: T1, Epidermal growth factor receptor; assay: Inhibition of WT EGFR in human A431 cells assessed as reduction in ERK phosphorylation at T202/Y204 residues up to 10 uM after 4 hrs by Western blot analysis; assay type: cell-based
# [16] = tested on: HCC827; assay: Antitumor activity against human HCC827 cells harboring EGFR exon-19 del mutant xenografted in castrated nude mouse assessed as tumor growth inhibition at 10 mg/kg, po daily for 14 consecutive days measured on day 15 relative to control; assay type: functional; conditions: Mus musculus, HCC827, po, 360 h; read-out: TGI
# [17] = tested on: NCI-H1975; assay: Antitumor activity against human NCI-H1975 cells harboring EGFR T790M/L858R double mutant xenografted in castrated nude mouse assessed as tumor growth inhibition at 40 mg/kg, po daily for 14 consecutive days measured on day 15 relative to control; assay type: functional; conditions: 360 h, read-out: TGI
# [18] = Selectivity index, ratio of IC50 for human A431 cells harboring WT EGFR to IC50 for human NCI-H1975 cells harboring EGFR T790M/L858R double mutant
# [19] = Selectivity index, ratio of IC50 for human A431 cells harboring WT EGFR to IC50 for human HCC827 cells harboring EGFR mutant
# [20] = Selectivity index, ratio of IC50 for human Calu3 cells harboring WT EGFR to IC50 for human PC9 cells harboring EGFR mutant
# [21] = tested on: HCC827; assay: Antitumor activity against human HCC827 cells harboring EGFR exon-19 del mutant xenografted in castrated nude mouse assessed as tumor growth inhibition administered orally daily for 14 consecutive days measured on day 15; assay type: functional, cell-based
# [22] = Toxicity in castrated nude mouse xenografted with human PC9 cells assessed as body weight loss at 2 to 20 mg/kg, po daily for 14 consecutive days; assay type: organism-based; conditions: in vivo
# [23] = tested on: PC-9; assay: Antitumor activity against human PC9 cells harboring EGFR exon-19 del mutant xenografted in castrated nude mouse assessed as tumor growth inhibition at 5 mg/kg, po daily for 14 consecutive days measured on day 15 relative to control; assay type: functional; conditions: PC-9, po, 360 h, read-out: TGI
# [24] = tested on: PC-9; assay: Antitumor activity against human PC9 cells harboring EGFR exon-19 del mutant xenografted in castrated nude mouse assessed as tumor growth inhibition at 20 mg/kg, po daily for 14 consecutive days measured on day 15 relative to control; assay type: functional; conditions: PC-9, po, 360 h, read-out: TGI
# [25] = tested on: PC-9; assay: Antitumor activity against human PC9 cells harboring EGFR exon-19 del mutant xenografted in castrated nude mouse assessed as tumor growth inhibition at 10 mg/kg, po daily for 14 consecutive days measured on day 15 relative to control; assay type: functional; conditions: Mus musculus, PC-9, po, 360 h; read-out: TGI
# [26] = biological target: T1, Epidermal growth factor receptor; assay: Inhibition of WT EGFR phosphorylation at Y1068 residue in human A431 cells up to 10 uM after 4 hrs by Western blot analysis; assay type: cell-based
# [27] = Toxicity in castrated nude mouse xenografted with human HCC827 cells assessed as body weight loss at 0.3 to 10 mg/kg, po daily for 14 consecutive days; assay type: organism-based; conditions: in vivo
# [28] = tested on: NCI-H1975; assay: Antitumor activity against human NCI-H1975 cells harboring EGFR T790M/L858R double mutant xenografted in castrated nude mouse assessed as tumor growth inhibition administered orally daily for 14 consecutive days measured on day 15; assay type: functional, cell-based
# [29] = Selectivity index, ratio of IC50 for human A431 cells harboring WT EGFR to IC50 for human PC9 cells harboring EGFR mutant
# [30] = tested on: NCI-H1975; assay: Antitumor activity against human NCI-H1975 cells harboring EGFR T790M/L858R double mutant xenografted in castrated nude mouse assessed as tumor growth inhibition at 20 mg/kg, po daily for 14 consecutive days measured on day 15 relative to control; assay type: functional; conditions: Mus musculus, NCI-H1975, po, 360 h; read-out: TGI
# [31] = Toxicity in castrated nude mouse xenografted with human NCI-H1975 cells assessed as body weight loss at 5 to 40 mg/kg, po daily for 14 consecutive days; assay type: organism-based; conditions: in vivo
# [32] = tested on: HCC827; assay: Antitumor activity against human HCC827 cells harboring EGFR exon-19 del mutant xenografted in castrated nude mouse assessed as tumor growth inhibition at 1 mg/kg, po daily for 14 consecutive days measured on day 15 relative to control; assay type: functional; conditions: 360 h, read-out: TGI
# [33] = Selectivity index, ratio of IC50 for human Calu3 cells harboring WT EGFR to IC50 for human NCI-H1975 cells harboring EGFR T790M/L858R double mutant
# [34] = tested on: PC-9; assay: Antitumor activity against human PC9 cells harboring EGFR exon-19 del mutant xenografted in castrated nude mouse assessed as tumor growth inhibition administered orally daily for 14 consecutive days measured on day 15; assay type: functional, cell-based
# [35] = tested on: HCC827; assay: Antitumor activity against human HCC827 cells harboring EGFR exon-19 del mutant xenografted in castrated nude mouse assessed as tumor growth inhibition at 0.3 mg/kg, po daily for 14 consecutive days measured on day 15 relative to control; assay type: functional; conditions: 360 h, read-out: TGI
# [36] = Selectivity index, ratio of IC50 for human Calu3 cells harboring WT EGFR to IC50 for human HCC827 cells harboring EGFR mutant
# [37] = tested on: PC-9; assay: Antitumor activity against human PC9 cells harboring EGFR exon-19 del mutant xenografted in castrated nude mouse assessed as tumor growth inhibition at 2 mg/kg, po daily for 14 consecutive days measured on day 15 relative to control; assay type: functional; conditions: PC-9, po, 360 h, read-out: TGI
# [38] = tested on: HCC827; assay: Antitumor activity against human HCC827 cells harboring EGFR exon-19 del mutant xenografted in castrated nude mouse assessed as tumor growth inhibition at 3 mg/kg, po daily for 14 consecutive days measured on day 15 relative to control; assay type: functional; conditions: 360 h, read-out: TGI
# [39] = tested on: NCI-H1975; assay: Antitumor activity against human NCI-H1975 cells harboring EGFR T790M/L858R double mutant xenografted in castrated nude mouse assessed as tumor growth inhibition at 5 mg/kg, po daily for 14 consecutive days measured on day 15 relative to control; assay type: functional; conditions: 360 h, read-out: TGI
# Chain of Epidermal growth factor receptor (Homo sapiens, UniProt P00533, L858R/T790M) (P00533 25-1210 T790M/L858R limits assumed): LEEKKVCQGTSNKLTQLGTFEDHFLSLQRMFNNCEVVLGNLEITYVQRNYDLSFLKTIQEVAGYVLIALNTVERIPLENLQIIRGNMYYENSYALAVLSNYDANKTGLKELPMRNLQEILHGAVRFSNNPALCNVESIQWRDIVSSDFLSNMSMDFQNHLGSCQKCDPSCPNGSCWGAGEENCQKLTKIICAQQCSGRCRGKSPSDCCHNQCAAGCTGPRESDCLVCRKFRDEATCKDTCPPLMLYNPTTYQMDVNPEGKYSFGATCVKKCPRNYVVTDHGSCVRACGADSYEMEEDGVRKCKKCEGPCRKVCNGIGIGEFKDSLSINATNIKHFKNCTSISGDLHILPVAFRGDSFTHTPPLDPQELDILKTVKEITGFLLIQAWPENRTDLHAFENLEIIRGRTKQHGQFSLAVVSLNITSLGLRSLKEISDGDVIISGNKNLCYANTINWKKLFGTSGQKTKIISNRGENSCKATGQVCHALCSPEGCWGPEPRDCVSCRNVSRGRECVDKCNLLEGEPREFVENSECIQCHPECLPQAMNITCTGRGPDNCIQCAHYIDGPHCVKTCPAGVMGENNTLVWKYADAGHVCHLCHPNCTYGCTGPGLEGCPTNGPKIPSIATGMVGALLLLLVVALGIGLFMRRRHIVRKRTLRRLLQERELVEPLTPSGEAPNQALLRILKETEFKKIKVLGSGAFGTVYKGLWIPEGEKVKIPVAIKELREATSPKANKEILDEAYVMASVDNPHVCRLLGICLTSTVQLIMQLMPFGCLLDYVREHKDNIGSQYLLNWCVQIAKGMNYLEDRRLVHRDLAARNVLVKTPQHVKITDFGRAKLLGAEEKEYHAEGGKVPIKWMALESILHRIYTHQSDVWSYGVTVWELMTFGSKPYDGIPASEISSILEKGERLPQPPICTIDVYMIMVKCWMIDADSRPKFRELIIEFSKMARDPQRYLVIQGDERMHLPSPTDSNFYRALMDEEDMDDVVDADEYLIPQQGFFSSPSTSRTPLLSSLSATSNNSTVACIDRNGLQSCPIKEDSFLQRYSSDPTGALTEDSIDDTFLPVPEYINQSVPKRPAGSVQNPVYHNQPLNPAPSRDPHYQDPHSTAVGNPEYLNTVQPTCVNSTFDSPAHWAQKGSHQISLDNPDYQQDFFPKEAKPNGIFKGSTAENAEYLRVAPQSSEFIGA
# T1 sequence (P00533 whole entry): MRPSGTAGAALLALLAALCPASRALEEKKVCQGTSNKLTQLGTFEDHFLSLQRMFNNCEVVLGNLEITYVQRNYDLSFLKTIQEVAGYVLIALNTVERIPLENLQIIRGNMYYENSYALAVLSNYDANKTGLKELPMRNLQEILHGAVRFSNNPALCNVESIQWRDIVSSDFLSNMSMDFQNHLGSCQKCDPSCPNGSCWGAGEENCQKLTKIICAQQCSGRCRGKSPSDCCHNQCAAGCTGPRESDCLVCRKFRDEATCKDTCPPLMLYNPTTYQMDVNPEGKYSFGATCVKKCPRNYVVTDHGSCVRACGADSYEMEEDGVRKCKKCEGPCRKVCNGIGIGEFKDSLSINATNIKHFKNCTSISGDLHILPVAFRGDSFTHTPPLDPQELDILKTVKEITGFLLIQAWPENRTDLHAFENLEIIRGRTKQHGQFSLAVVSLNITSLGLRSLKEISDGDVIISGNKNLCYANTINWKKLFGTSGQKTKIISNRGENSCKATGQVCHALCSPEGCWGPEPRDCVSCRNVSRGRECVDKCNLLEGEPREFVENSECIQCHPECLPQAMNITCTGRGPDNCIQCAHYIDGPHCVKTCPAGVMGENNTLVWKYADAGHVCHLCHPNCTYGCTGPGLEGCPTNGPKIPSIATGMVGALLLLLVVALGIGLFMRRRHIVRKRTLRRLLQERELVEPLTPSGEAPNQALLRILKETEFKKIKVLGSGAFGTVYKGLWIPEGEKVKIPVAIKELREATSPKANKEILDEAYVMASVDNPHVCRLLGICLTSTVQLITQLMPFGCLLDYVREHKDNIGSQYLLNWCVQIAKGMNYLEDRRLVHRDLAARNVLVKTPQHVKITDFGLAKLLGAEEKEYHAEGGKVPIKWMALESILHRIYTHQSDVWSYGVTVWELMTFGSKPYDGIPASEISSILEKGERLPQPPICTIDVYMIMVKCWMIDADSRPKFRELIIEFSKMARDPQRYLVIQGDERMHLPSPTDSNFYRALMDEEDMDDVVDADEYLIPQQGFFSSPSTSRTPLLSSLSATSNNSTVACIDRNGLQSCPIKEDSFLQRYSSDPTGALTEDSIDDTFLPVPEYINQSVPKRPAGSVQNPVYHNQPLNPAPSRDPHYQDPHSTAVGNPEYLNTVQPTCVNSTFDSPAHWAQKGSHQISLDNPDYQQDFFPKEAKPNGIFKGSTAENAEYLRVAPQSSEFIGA
# Chain of Epidermal growth factor receptor (Homo sapiens, UniProt P00533, L858R) (P00533 25-1210 L858R limits assumed): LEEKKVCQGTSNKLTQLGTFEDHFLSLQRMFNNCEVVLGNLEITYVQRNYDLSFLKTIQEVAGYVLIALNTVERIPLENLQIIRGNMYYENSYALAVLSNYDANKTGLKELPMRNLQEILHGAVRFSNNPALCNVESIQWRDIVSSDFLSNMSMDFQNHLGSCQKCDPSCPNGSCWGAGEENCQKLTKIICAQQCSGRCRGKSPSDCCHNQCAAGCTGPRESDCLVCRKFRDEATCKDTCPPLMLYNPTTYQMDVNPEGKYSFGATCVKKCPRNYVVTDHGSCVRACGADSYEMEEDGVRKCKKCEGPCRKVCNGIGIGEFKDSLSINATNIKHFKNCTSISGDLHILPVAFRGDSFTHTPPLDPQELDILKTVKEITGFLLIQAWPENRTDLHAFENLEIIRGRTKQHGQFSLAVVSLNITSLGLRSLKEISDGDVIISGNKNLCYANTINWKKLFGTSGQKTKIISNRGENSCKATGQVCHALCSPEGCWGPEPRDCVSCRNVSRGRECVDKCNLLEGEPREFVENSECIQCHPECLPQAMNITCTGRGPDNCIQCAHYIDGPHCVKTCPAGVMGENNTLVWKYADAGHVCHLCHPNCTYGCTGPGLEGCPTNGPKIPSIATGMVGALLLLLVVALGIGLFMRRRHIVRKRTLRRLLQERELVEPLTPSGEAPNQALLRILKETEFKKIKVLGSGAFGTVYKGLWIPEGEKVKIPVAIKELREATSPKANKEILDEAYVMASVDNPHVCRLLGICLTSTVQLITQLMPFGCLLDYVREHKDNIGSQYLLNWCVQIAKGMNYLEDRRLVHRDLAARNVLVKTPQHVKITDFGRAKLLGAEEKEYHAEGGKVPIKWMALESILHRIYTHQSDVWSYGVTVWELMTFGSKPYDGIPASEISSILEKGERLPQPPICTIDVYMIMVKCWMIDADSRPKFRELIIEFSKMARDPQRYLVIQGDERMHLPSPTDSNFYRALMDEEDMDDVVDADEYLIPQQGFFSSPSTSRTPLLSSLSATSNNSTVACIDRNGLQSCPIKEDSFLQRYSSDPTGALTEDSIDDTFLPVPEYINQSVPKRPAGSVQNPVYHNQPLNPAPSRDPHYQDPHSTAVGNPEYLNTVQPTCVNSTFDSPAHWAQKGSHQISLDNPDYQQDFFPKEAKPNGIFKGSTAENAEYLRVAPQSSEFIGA
structure (smiles),measurement,setting,value
C=CC(=O)Nc1cc(Nc2nccc(-c3nn(C)c4ccsc34)n2)c(OC(F)F)cc1N(C)CCN(C)C,RatioGI50,[1],13.2
same,GI50,[2],6.5 nM
same,GI50 at 72 h,[3],85.8 nM
C=CC(=O)Nc1cc(Nc2nccc(-c3noc4ccccc34)n2)c(OC)cc1N(C)CCN(C)C,RatioGI50,[1],15.1
same,GI50,[2],7.3 nM
same,GI50 at 72 h,[3],110 nM
C=CC(=O)Nc1cc(Nc2nccc(-c3cn(C)c4cccnc34)n2)c(OC)cc1NCCN(C)C,pIC50,[4],4.11
same,pIC50,[5],< 5.00
same,pIC50,[6],6.13
same,Ratio IC50,[7],5.1
same,pIC50,[8],< 5.00
same,pIC50,[9],4.82
same,pIC50,[10],7.12
same,pIC50,[2],6.10
same,pIC50,[11],5.17
same,Drug metabolism,[12],Metabolite_Detected
same,pIC50,[13],4.92
C=CC(=O)Nc1cc(Nc2nccc(-c3noc4ccccc34)n2)c(OC)cc1N1CCN(C)CC1,RatioGI50,[1],4.3
same,GI50,[2],168 nM
same,GI50 at 72 h,[3],728 nM
C=CC(=O)Nc1cc(Nc2nccc(-c3cn(C)c4cccnc34)n2)c(OC)cc1N(C)CCN(C)C,inhibition in vivo at 10 mg/kg,[14],84%
same,inhibition (INH),[15],Not Active
same,pIC50,[4],4.20
same,inhibition in vivo at 10 mg/kg,[16],125%
same,inhibition in vivo at 40 mg/kg,[17],106%
same,Ratio IC50,[18],23.5
same,Ratio IC50,[19],219.3
same,pIC50,[5],< 5.00
same,Ratio IC50,[20],50
same,TGI,[21],Dose-dependent effect
same,pIC50,[6],6.70
same,Activity,[22],Non-Toxic
same,inhibition in vivo at 5 mg/kg,[23],94%
same,inhibition in vivo at 20 mg/kg,[24],107%
same,inhibition in vivo at 10 mg/kg,[25],104%
same,inhibition (INH),[26],Not Active
same,Activity,[27],Non-Toxic
same,RatioGI50,[1],73.5
same,Ratio IC50,[7],30
same,TGI,[28],Dose-dependent effect
same,Ratio IC50,[29],16.5
same,pIC50,[8],< 5.00
same,pIC50,[9],5.68
same,inhibition in vivo at 20 mg/kg,[30],99%
same,pIC50,[10],7.82
same,Activity,[31],Non-Toxic
same,inhibition in vivo at 1 mg/kg,[32],83%
same,Ratio IC50,[33],71.4
same,TGI,[34],Dose-dependent effect
same,GI50,[2],6.8 nM
same,pIC50,[2],6.85
same,inhibition in vivo at 0.3 mg/kg,[35],74%
same,Ratio IC50,[36],666.7
same,GI50 at 72 h,[3],500 nM
same,pIC50,[11],5.48
same,inhibition in vivo at 2 mg/kg,[37],67%
same,pIC50,[13],5.26
same,inhibition in vivo at 3 mg/kg,[38],119%
same,inhibition in vivo at 5 mg/kg,[39],48%
C=CC(=O)Nc1cc(Nc2nccc(-c3noc4ccccc34)n2)c(OC(F)F)cc1N(C)CCN(C)C,RatioGI50,[1],22.3
same,GI50,[2],4 nM
same,GI50 at 72 h,[3],89.1 nM
C=CC(=O)Nc1cc(Nc2nccc(-c3cn(C)c4cccnc34)n2)c(OC)cc1N1CCN(C)CC1,RatioGI50,[1],8.9
same,GI50,[2],175 nM
same,GI50 at 72 h,[3],1560 nM
C=CC(=O)Nc1cc(Nc2nccc(-c3nn(C)c4ccsc34)n2)c(OC)cc1N(C)CCN(C)C,RatioGI50,[1],19.5
same,GI50,[2],10.7 nM
same,GI50 at 72 h,[3],209 nM
C=CC(=O)Nc1cc(Nc2nccc(-c3cn(C)c4cccnc34)n2)c(OC)cc1N(C)CCNC,pIC50,[4],3.56
same,pIC50,[5],< 5.00
same,pIC50,[6],6.48
same,Ratio IC50,[7],42
same,pIC50,[8],< 5.00
same,pIC50,[9],5.18
same,pIC50,[10],7.38
same,pIC50,[2],6.57
same,pIC50,[11],5.46
same,Drug metabolism,[12],Metabolite_Detected
same,pIC50,[13],4.92
